Marks after values point to notes of the source that are not given here.
Legend:
αP272Cβγδ nAChR = αP272Cβγδ nAChR (Mus musculus, UniProt P02716+P04756+P04760, P292C); test: Rates of reaction of engineered Cys with MTSEA; type: cell-based; conditions: MTSEA with ACh (EC80-EC100)
αI274Cβγδ nAChR = αI274Cβγδ nAChR (Mus musculus, UniProt P02716+P04756+P04760, I294C); test: Rates of reaction of engineered Cys with MTSEA; type: cell-based; conditions: MTSEA with ACh (EC80-EC100)
αV271Cβγδ nAChR = αV271Cβγδ nAChR (Mus musculus, UniProt P02716+P04756+P04760, V291C); test: Rates of reaction of engineered Cys with MTSEA; type: cell-based; conditions: MTSEA with ACh (EC80-EC100)
αI264Cβγδ nAChR = αI264Cβγδ nAChR (Mus musculus, UniProt P02716+P04756+P04760, I284C); test: Rates of reaction of engineered Cys with MTSEA; type: cell-based; conditions: MTSEA with ACh (EC80-EC100)
αS266Cβγδ nAChR = αS266Cβγδ nAChR (Mus musculus, UniProt P02716+P04756+P04760, S286C); test: Rates of reaction of engineered Cys with MTSEA; type: cell-based
αS266Cβγδ nAChR, sequence (P04756 21-457 S286C): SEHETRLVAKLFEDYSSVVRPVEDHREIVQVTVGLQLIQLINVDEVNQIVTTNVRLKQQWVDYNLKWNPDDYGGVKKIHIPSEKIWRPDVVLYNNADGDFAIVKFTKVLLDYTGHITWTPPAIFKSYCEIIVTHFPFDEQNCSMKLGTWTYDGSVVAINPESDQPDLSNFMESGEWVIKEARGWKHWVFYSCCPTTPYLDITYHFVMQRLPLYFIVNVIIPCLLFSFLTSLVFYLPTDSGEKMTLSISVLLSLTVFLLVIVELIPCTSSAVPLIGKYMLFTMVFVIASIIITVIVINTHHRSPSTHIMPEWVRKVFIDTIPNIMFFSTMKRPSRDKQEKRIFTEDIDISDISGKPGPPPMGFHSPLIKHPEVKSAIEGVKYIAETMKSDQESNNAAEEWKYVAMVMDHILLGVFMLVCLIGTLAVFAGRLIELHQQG
αS266Cβγδ nAChR, sequence (P09690 24-501 partner): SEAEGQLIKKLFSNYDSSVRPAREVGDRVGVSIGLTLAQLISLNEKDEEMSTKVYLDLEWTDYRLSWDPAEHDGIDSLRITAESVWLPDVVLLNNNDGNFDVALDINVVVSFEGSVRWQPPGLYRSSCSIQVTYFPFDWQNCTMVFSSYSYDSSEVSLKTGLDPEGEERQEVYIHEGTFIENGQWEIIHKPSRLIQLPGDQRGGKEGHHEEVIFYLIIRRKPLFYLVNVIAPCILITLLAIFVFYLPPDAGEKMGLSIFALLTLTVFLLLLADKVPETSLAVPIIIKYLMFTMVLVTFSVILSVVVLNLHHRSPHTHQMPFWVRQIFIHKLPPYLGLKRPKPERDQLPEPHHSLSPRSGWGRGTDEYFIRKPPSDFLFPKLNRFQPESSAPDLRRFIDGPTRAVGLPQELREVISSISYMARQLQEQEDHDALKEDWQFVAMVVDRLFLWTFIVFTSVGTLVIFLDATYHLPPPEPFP
αS266Cβγδ nAChR, sequence (P04760 23-519): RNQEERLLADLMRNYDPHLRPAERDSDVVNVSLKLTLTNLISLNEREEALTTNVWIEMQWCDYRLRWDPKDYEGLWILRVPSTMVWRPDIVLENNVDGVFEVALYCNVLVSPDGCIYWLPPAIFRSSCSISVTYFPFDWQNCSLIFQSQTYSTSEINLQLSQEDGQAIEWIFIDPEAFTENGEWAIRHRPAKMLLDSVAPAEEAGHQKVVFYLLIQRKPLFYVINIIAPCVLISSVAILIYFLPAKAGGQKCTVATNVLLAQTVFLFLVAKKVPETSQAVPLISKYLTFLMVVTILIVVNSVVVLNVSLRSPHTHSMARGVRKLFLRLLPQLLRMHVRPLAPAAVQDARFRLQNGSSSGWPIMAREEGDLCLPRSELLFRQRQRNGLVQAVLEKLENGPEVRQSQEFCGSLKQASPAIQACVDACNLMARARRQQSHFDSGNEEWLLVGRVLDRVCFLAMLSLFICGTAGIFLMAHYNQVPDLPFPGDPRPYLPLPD
αS266Cβγδ nAChR, sequence (P02716 25-520, stated change not applied): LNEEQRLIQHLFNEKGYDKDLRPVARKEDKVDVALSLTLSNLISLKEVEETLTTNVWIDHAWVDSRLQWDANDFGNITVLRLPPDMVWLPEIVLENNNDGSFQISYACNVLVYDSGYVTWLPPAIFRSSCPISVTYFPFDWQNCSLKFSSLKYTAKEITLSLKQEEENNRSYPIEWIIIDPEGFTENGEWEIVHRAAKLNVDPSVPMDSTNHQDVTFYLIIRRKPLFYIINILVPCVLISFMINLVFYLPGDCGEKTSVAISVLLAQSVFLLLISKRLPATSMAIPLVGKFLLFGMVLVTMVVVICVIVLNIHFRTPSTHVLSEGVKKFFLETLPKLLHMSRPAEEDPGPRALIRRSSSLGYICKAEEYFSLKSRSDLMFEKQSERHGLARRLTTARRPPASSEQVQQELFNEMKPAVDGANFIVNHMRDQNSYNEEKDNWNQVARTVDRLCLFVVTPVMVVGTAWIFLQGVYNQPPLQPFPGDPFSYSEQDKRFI

αT267Cβγδ nAChR = αT267Cβγδ nAChR (Mus musculus, UniProt P02716+P04756+P04760, T287C); test: Rates of reaction of engineered Cys with MTSEA; type: cell-based; conditions: MTSEA with ACh (EC80-EC100)
[1] = tested on: nAChR α-subunit single Cys mutants (αβγδ); conditions: 2 min, αA270C, αL273C, αI274C, αK276C, αY277C
αL263Cβγδ nAChR = αL263Cβγδ nAChR (Mus musculus, UniProt P02716+P04756+P04760+P09690, L283C); test: Rates of reaction of engineered Cys with MTSEA; type: cell-based; conditions: αL263C; MTSEA alone; component not specified, classed slow
αS268Cβγδ nAChR = αS268Cβγδ nAChR (Mus musculus, UniProt P02716+P04756+P04760, S288C); test: Effect of MTS reagent application on subsequent ACh induced current; type: cell-based; conditions: αS268C
αS268Cβγδ nAChR, sequence (P04756 21-457 S288C): as the sequence (P04756 21-457 S286C) above, with C266S, S268C counted along it
αS268Cβγδ nAChR, sequence (P09690 24-501 partner): as the sequence (P09690 24-501 partner) above
αS268Cβγδ nAChR, sequence (P04760 23-519): as the sequence (P04760 23-519) above
αS268Cβγδ nAChR, sequence (P02716 25-520): as the sequence (P02716 25-520, stated change not applied) above

αG275Cβγδ nAChR = αG275Cβγδ nAChR (Mus musculus, UniProt P02716+P04756+P04760, G295C); test: Rates of reaction of engineered Cys with MTSEA; type: cell-based; conditions: MTSEA with ACh (EC80-EC100)
αP265Cβγδ nAChR = αP265Cβγδ nAChR (Mus musculus, UniProt P02716+P04756+P04760, P285C); test: Rates of reaction of engineered Cys with MTSEA; type: cell-based; conditions: MTSEA with ACh (EC80-EC100)
αE262Cβγδ nAChR = αE262Cβγδ nAChR (Mus musculus, UniProt P02716+P04756+P04760, E282C); test: Rates of reaction of engineered Cys with MTSEA; type: cell-based; conditions: MTSEA with ACh (EC80-EC100)
αS269Cβγδ nAChR = αS269Cβγδ nAChR (Mus musculus, UniProt P02716+P04756+P04760, S289C); test: Effect of MTS reagent application on subsequent ACh induced current; type: cell-based; conditions: αS269C; MTSES 5 mM, 2 min; ACh EC30-70

Row | Compound | τ in the presence of ACh, second order reaction rate constant (αP272Cβγδ nAChR) | τ in the presence of ACh, second order reaction rate constant (αI274Cβγδ nAChR) | τ in the presence of ACh, second order reaction rate constant (αV271Cβγδ nAChR) | τ in the presence of ACh, second order reaction rate constant (αI264Cβγδ nAChR) [M⁻¹ s⁻¹] | τ, second order reaction rate constant (αS266Cβγδ nAChR; MTSEA applied in the absence of ACh) | τ in the presence of ACh, second order reaction rate constant (αS266Cβγδ nAChR; MTSEA with ACh (EC80-EC100)) | τ in the presence of ACh, second order reaction rate constant (αT267Cβγδ nAChR) | effect of MTSEA application on ACh induced currents ([1]; MTSEA 2 mM, absence of ACh, αS268C) | second-order rate constant (αL263Cβγδ nAChR) | reaction of MTSEA at this position (successive MTSEA then MTSES application) (αS268Cβγδ nAChR; MTSEA 2 mM, 2 min followed by MTSES 5 mM, 2 min on the same oocyte) | τ in the presence of ACh, second order reaction rate constant (αG275Cβγδ nAChR) [M⁻¹ s⁻¹] | τ in the presence of ACh, second order reaction rate constant (αP265Cβγδ nAChR) | τ in the presence of ACh, second order reaction rate constant (αE262Cβγδ nAChR) | % increase of subsequent ACh induced current amplitude (αS269Cβγδ nAChR) [%] | effect of MTSES application on ACh induced currents ([1]; MTSES 5 mM) | % increase of subsequent ACh induced current amplitude (αS268Cβγδ nAChR; MTSES 5 mM, 2 min, ACh EC30-70) [%] | effect of MTSES applied after MTSEA on subsequent ACh induced currents (αS268Cβγδ nAChR; compared to MTSES applied alone)
1 | CS(=O)(=O)SCCN [MTSEA, methanethiosulfonate ethylammonium] | 426 ± 66* M^-1s^-1 | 8.7 ± 2.6*** M^-1s^-1 | 398 ± 73*** M^-1s^-1 | 22.8 ± 6.5 | 12,200 ± 2,200 M^-1s^-1 | 6,970 ± 1,800 M^-1s^-1 | 5,450 ± 86*** M^-1s^-1 | no effect | < 1,000 M^-1s^-1 | does not react at this position | 22.2 ± 3.3 | 3,940 ± 620*** M^-1s^-1 | 23,000 ± 2,100** M^-1s^-1 | – | – | – | –
2 | CS(=O)(=O)SCCS(=O)(=O)[O-].[Na+] [MTSES, methanethiosulfonate ethylsulfonate] | – | – | – | – | – | – | – | – | – | – | – | – | – | 177 ± 37 | no functional effect | 85 ± 12 | similarly increased subsequent ACh induced currents
